From PMC7316778 (Nature Communications, 2020)
Where “and” joins values, the source holds several entries; their conditions need not be identical. Equal values may be shown once. Read-outs that look alike come from different tables or passages of the source.

What was measured:
DAPK3 (ZIPK) = DAPK3 (ZIPK) (Homo sapiens, UniProt O43293); experiment: SelectScreen kinase assay; conditions: for Inhibition at 1 µM (%): DAPK3 (ZIPK), ZLYTE, ATP Km app
Experimental: (§1) Selectivity profiling assays were performed by the Invitrogen SelectScreen™ Services. […] The concentration of ATP was selected to be equal to the KM, unless indicated otherwise.

CDK18/cyclin Y = CDK18/cyclin Y (Homo sapiens, UniProt Q07002); experiment: SelectScreen kinase assay; conditions: for Inhibition at 1 µM (%): CDK18/cyclin Y, ZLYTE, ATP Km app
Sequence of CDK18/cyclin Y (Q07002 whole entry): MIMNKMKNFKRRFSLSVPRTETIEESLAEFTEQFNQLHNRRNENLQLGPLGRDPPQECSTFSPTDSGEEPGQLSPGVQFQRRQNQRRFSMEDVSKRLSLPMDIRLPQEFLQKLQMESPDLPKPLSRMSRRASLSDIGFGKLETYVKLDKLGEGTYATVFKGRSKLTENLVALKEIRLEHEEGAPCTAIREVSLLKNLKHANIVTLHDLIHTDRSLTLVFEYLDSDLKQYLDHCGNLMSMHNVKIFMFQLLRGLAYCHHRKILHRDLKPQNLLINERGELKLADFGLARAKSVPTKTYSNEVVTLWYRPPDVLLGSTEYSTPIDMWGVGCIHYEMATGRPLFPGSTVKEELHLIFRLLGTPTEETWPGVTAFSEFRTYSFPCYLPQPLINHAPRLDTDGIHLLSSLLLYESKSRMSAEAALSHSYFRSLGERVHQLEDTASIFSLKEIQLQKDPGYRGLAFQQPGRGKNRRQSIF
Sequence of CDK18/cyclin Y (Q8ND76 whole entry partner): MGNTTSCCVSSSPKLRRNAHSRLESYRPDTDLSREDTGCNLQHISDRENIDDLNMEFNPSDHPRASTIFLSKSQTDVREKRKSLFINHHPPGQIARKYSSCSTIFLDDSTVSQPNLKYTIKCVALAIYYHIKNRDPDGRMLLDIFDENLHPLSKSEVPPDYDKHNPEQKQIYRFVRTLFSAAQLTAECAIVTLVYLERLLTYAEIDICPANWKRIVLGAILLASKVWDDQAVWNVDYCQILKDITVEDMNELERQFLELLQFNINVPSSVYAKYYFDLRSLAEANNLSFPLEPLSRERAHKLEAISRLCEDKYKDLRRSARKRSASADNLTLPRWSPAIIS
Experimental: as §1

ICK = ICK (Homo sapiens, UniProt Q9UPZ9); experiment: SelectScreen kinase assay
Experimental: as §1

FGFR3 = FGFR3 (Homo sapiens, UniProt P22607); experiment: SelectScreen kinase assay
Experimental: as §1

FES^S700C HL-60 cells = experiment: CD11b surface expression, neutrophil differentiation; assay type: cell-based, human; conditions: 100 nM; Supplementary Figure 12c; individual replicates; listed as WEL028
BMX = molecular target: T1, BMX (Homo sapiens, UniProt P51813); experiment: SelectScreen kinase assay
T1 sequence (P51813 1-675): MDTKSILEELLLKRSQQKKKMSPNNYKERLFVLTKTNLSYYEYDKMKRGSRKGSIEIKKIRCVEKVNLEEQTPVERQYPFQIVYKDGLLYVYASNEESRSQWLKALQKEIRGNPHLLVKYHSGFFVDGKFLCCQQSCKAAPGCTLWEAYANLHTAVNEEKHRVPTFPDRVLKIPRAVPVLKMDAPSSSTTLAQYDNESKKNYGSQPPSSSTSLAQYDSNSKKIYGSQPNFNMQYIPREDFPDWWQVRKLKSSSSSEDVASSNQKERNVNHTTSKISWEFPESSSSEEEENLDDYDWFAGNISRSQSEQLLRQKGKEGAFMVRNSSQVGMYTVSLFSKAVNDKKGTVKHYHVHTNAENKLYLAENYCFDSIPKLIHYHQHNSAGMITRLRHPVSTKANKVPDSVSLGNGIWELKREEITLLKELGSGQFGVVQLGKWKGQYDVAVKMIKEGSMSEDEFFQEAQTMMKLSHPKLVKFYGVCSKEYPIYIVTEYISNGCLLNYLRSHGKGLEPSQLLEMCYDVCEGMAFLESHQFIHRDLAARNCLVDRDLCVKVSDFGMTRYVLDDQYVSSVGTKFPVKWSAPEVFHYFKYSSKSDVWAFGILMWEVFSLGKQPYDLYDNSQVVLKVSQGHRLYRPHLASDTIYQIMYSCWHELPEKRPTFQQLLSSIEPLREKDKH
Experimental: as §1

STK23 (MSSK1) = STK23 (MSSK1) (Homo sapiens, UniProt Q9UPE1); experiment: SelectScreen kinase assay; conditions: for Inhibition at 1 µM (%): ZLYTE, ATP Km app
Experimental: as §1

CSNK1G1 (CK1 gamma 1) = CSNK1G1 (CK1 gamma 1) (Homo sapiens, UniProt Q9HCP0); experiment: SelectScreen kinase assay; conditions: for Inhibition at 1 µM (%): CSNK1G1 (CK1 gamma 1), ZLYTE, ATP Km app
Experimental: as §1

PIP4K2A = PIP4K2A (Homo sapiens, UniProt P48426); experiment: SelectScreen kinase assay; conditions: 1 h, 1 μM WEL028, 1 h preincubation
Experimental: as §1

PIK3C2B (PI3K-C2 beta) = PIK3C2B (PI3K-C2 beta) (Homo sapiens, UniProt O00750); experiment: SelectScreen kinase assay
Experimental: as §1

PRKACG (PRKAC gamma) = PRKACG (PRKAC gamma) (Homo sapiens, UniProt P22612); experiment: SelectScreen kinase assay; conditions: for Inhibition at 1 µM (%): PRKACG (PRKAC gamma), LanthaScreen Binding
Sequence of PRKACG (PRKAC gamma) (P22612 whole entry): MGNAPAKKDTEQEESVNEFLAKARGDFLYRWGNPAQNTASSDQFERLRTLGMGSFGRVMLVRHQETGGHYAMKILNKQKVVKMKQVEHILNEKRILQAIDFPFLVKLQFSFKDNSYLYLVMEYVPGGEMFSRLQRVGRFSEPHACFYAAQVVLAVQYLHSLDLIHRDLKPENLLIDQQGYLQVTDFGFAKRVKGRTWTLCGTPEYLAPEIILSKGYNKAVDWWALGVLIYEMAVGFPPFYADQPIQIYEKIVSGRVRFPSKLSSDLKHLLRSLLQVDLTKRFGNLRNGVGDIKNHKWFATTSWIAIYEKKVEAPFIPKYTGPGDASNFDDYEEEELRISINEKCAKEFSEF
Experimental: as §1

MAP3K10 (MLK2) = MAP3K10 (MLK2) (Homo sapiens, UniProt Q02779); experiment: SelectScreen kinase assay
Sequence of MAP3K10 (MLK2) (Q02779 whole entry): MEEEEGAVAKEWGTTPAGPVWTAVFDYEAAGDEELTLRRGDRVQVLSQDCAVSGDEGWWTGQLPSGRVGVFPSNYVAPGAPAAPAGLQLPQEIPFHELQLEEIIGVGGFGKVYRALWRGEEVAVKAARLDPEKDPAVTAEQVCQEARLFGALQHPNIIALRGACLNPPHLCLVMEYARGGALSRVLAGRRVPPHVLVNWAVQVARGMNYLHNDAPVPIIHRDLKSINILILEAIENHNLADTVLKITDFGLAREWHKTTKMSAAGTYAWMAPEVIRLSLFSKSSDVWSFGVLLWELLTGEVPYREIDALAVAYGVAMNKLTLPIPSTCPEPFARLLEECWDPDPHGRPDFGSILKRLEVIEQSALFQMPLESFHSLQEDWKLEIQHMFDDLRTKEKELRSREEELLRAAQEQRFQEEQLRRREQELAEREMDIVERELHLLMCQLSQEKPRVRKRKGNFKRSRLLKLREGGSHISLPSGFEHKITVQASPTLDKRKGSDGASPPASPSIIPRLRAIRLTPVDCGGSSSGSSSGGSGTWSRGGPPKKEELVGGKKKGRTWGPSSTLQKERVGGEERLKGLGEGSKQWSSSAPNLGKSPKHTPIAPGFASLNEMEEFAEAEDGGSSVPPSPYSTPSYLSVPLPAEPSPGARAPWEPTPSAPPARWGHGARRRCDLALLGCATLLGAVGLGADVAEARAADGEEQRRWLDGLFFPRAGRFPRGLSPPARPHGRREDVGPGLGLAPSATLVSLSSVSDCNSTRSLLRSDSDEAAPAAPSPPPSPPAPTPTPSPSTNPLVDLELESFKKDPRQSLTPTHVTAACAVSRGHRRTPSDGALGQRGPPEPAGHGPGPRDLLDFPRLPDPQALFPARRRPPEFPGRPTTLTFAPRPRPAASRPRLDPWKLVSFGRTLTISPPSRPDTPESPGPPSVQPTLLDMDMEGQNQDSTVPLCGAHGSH
Experimental: as §1

CDK3/cyclin E1 = CDK3/cyclin E1 (Homo sapiens, UniProt Q00526); experiment: SelectScreen kinase assay; conditions: for Inhibition at 1 µM (%): CDK3/cyclin E1, LanthaScreen Binding
Experimental: as §1

RPS6KA3 (RSK2) = RPS6KA3 (RSK2) (Homo sapiens, UniProt P51812); experiment: SelectScreen kinase assay
Experimental: as §1

HIPK2 = HIPK2 (Homo sapiens, UniProt Q9H2X6); experiment: SelectScreen kinase assay; conditions: for Inhibition at 1 µM (%): HIPK2, ZLYTE, ATP Km app
Experimental: as §1

MST4 = MST4 (Homo sapiens, UniProt Q9P289); experiment: SelectScreen kinase assay
Sequence of MST4 (Q9P289 whole entry): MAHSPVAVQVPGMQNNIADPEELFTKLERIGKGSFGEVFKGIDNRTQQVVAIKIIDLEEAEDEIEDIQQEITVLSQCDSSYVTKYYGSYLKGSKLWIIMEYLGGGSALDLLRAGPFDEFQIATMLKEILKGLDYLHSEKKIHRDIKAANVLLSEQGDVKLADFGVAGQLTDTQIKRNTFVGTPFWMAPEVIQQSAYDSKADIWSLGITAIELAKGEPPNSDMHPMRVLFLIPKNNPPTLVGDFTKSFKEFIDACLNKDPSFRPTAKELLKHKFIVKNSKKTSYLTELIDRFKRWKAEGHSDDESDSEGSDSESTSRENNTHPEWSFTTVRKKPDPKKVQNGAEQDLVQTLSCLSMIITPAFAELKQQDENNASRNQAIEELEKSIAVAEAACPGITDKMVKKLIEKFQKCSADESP
Experimental: as §1

PIK3C2G (PI3K-C2 gamma) = PIK3C2G (PI3K-C2 gamma) (Homo sapiens, UniProt O75747); experiment: SelectScreen kinase assay
Sequence of PIK3C2G (PI3K-C2 gamma) (O75747 whole entry): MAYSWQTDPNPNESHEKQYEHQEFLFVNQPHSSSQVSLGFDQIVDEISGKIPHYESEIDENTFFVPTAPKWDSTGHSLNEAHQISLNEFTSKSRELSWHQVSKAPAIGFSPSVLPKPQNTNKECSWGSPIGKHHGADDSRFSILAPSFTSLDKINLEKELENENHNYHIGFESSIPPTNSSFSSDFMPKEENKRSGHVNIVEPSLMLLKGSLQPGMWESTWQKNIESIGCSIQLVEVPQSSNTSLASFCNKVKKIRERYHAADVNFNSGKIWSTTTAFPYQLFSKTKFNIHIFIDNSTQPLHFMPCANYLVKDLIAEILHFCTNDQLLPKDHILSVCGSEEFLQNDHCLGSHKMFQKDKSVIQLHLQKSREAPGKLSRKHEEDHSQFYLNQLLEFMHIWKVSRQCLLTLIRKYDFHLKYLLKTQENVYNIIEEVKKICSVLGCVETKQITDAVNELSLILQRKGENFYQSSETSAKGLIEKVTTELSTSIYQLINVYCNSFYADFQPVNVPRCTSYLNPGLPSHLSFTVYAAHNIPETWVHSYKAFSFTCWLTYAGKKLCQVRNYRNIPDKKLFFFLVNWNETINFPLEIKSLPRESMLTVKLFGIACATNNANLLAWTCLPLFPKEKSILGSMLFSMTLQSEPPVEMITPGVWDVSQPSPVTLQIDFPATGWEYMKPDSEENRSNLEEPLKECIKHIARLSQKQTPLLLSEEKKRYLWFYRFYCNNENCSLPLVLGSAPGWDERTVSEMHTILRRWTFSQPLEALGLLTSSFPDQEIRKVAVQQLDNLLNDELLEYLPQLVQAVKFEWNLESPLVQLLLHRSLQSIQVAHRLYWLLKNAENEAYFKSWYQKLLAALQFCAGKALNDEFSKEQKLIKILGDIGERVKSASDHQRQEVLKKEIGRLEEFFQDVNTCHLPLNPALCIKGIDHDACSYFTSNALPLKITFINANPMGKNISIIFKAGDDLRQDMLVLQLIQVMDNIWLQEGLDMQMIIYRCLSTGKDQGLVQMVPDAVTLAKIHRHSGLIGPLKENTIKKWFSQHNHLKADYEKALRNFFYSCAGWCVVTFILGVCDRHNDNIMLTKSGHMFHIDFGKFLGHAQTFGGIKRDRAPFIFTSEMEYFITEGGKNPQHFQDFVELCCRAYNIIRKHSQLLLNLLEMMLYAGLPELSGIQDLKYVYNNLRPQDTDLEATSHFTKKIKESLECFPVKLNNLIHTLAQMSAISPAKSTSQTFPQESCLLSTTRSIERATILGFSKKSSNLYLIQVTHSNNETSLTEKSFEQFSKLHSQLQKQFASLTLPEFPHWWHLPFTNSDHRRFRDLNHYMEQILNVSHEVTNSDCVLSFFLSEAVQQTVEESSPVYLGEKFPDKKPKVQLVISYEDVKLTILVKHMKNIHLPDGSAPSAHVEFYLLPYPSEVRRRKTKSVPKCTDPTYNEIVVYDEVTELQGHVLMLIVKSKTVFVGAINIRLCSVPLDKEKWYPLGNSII
Experimental: as §1

CSNK1A1 (CK1 alpha 1) = CSNK1A1 (CK1 alpha 1) (Homo sapiens, UniProt P48729); experiment: SelectScreen kinase assay
Sequence of CSNK1A1 (CK1 alpha 1) (P48729 whole entry): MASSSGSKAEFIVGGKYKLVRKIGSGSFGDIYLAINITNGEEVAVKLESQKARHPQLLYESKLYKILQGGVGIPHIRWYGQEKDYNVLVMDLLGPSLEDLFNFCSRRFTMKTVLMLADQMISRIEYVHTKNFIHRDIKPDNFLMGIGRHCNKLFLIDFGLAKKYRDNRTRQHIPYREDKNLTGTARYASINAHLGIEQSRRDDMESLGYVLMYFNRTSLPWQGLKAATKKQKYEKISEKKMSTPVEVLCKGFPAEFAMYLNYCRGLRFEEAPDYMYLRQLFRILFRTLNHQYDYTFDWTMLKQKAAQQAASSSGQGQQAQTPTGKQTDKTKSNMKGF
Experimental: as §1

CAMK1G (CAMKI gamma) = CAMK1G (CAMKI gamma) (Homo sapiens, UniProt Q96NX5); experiment: SelectScreen kinase assay; conditions: for Inhibition at 1 µM (%): CAMK1G (CAMKI gamma), ZLYTE, ATP Km app
Sequence of CAMK1G (CAMKI gamma) (Q96NX5 whole entry): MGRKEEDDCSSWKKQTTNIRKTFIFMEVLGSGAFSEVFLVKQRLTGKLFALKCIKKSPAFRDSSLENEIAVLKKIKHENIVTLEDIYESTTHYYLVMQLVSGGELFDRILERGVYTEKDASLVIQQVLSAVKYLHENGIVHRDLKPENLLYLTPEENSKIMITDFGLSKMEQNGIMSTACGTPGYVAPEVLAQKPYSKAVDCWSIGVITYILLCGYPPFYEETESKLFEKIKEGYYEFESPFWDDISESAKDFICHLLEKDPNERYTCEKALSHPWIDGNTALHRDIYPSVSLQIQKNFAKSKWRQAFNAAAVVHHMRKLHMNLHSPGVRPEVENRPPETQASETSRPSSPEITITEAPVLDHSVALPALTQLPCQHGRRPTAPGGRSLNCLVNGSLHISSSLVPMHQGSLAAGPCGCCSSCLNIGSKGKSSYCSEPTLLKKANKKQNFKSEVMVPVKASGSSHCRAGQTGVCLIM
Experimental: as §1

[1] = 1 h, 1 μM WEL028, 1 h preincubation

## C#CCOc1ccc(Nc2ncc(Cl)c(Nc3ccccc3NC(=O)C=C)n2)c(OC)c1 [Compound 6]
DAPK3 (ZIPK); [1]
  inhibition at 1 µM: 4%
DAPK3 (ZIPK)
  Inhibition at 1 µM (%): 2%
DAPK3 (ZIPK); listed as WEL028, 1 µM
  Inhibition at 1 µM (%): 5%
CDK18/cyclin Y; [1]
  inhibition at 1 µM: 1%
CDK18/cyclin Y
  Inhibition at 1 µM (%): 3%
CDK18/cyclin Y; listed as WEL028, 1 µM
  Inhibition at 1 µM (%): -1%
ICK; [1]
  inhibition at 1 µM: 7%
ICK; read-out: Inhibition at 1 µM (%), ICK, 1 µM, LanthaScreen Binding
  inhibition at 1 µM: 8%
FGFR3; [1]
  inhibition at 1 µM: 6%
FGFR3; read-out: Inhibition at 1 µM (%), FGFR3, 1 µM, ZLYTE, ATP Km app
  inhibition at 1 µM: 7%
FES^S700C HL-60 cells
  CD11b-positive cells (%): 93.1005% and 92.0572% and 93.2155%
BMX; [1]
  inhibition at 1 µM: 16%
BMX; BMX, 1 µM, ZLYTE, ATP Km app, listed as WEL028, 1 µM
  Inhibition at 1 µM (%): 18%
BMX; read-out: Inhibition at 1 µM (%), BMX, 1 µM, ZLYTE, ATP Km app
  inhibition at 1 µM: 14%
STK23 (MSSK1)
  Inhibition at 1 µM (%): 2%
STK23 (MSSK1); listed as WEL028, 1 µM
  Inhibition at 1 µM (%): -4%
STK23 (MSSK1); [1]
  inhibition at 1 µM: -1%
CSNK1G1 (CK1 gamma 1); 1 μM WEL028, 1 h preincubation
  Inhibition (%): 4%
CSNK1G1 (CK1 gamma 1)
  Inhibition at 1 µM (%): 2%
CSNK1G1 (CK1 gamma 1); listed as WEL028, 1 µM
  Inhibition at 1 µM (%): 7%
PIP4K2A
  inhibition at 1 µM: -10%
PIK3C2B (PI3K-C2 beta); 1 h
  inhibition at 1 µM: -1%
PIK3C2B (PI3K-C2 beta); read-out: Inhibition at 1 µM (%)
  inhibition at 1 µM: -1%
PRKACG (PRKAC gamma); [1]
  inhibition at 1 µM: 3%
PRKACG (PRKAC gamma)
  Inhibition at 1 µM (%): 2%
PRKACG (PRKAC gamma); listed as WEL028, 1 µM
  Inhibition at 1 µM (%): 5%
MAP3K10 (MLK2); [1]
  inhibition at 1 µM: 4%
MAP3K10 (MLK2); MAP3K10 (MLK2), 1 µM, LanthaScreen Binding, listed as WEL028, 1 µM
  Inhibition at 1 µM (%): 5%
MAP3K10 (MLK2); read-out: Inhibition at 1 µM (%), MAP3K10 (MLK2), 1 µM, LanthaScreen Binding
  inhibition at 1 µM: 4%
CDK3/cyclin E1; 1 μM WEL028, 1 h preincubation
  Inhibition (%): 1%
CDK3/cyclin E1
  Inhibition at 1 µM (%): -3%
CDK3/cyclin E1; listed as WEL028, 1 µM
  Inhibition at 1 µM (%): 5%
RPS6KA3 (RSK2); 1 µM, ZLYTE, ATP Km app, listed as WEL028, 1 µM
  Inhibition at 1 µM (%): 12%
RPS6KA3 (RSK2); [1]
  inhibition at 1 µM: 13%
RPS6KA3 (RSK2); read-out: Inhibition at 1 µM (%), 1 µM, ZLYTE, ATP Km app
  inhibition at 1 µM: 13%
HIPK2; [1]
  inhibition at 1 µM: 1%
HIPK2
  Inhibition at 1 µM (%): 2%
HIPK2; listed as WEL028, 1 µM
  Inhibition at 1 µM (%): 0%
MST4; [1]
  inhibition at 1 µM: 19%
MST4; MST4, 1 µM, ZLYTE, ATP Km app, listed as WEL028, 1 µM
  Inhibition at 1 µM (%): 18%
MST4; read-out: Inhibition at 1 µM (%), MST4, 1 µM, ZLYTE, ATP Km app
  inhibition at 1 µM: 21%
PIK3C2G (PI3K-C2 gamma); [1]
  inhibition at 1 µM: -3%
PIK3C2G (PI3K-C2 gamma); PIK3C2G (PI3K-C2 gamma), 1 µM, Adapta, ATP 10, listed as WEL028, 1 µM
  Inhibition at 1 µM (%): -1% and -6%
CSNK1A1 (CK1 alpha 1); [1]
  inhibition at 1 µM: 9%
CSNK1A1 (CK1 alpha 1); CSNK1A1 (CK1 alpha 1), 1 µM, ZLYTE, ATP Km app, listed as WEL028, 1 µM
  Inhibition at 1 µM (%): 12%
CSNK1A1 (CK1 alpha 1); read-out: Inhibition at 1 µM (%), CSNK1A1 (CK1 alpha 1), 1 µM, ZLYTE, ATP Km app
  inhibition at 1 µM: 6%
CAMK1G (CAMKI gamma); [1]
  inhibition at 1 µM: 2%
CAMK1G (CAMKI gamma)
  Inhibition at 1 µM (%): 3%
CAMK1G (CAMKI gamma); listed as WEL028, 1 µM
  Inhibition at 1 µM (%): 1%
